Experimental data from the supplement of paper PMC9663587.

Tests used:
THZ531 = compound: CN(C)C/C=C/C(=O)Nc1ccc(C(=O)N2CCC[C@@H](Nc3ncc(Cl)c(-c4c[nH]c5ccccc45)n3)C2)cc1 [THZ531]; test: increase in dead-cell fraction, 72 h; higher = more death;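 further: breast cancer cell lines in 384-well plates, stained with Hoechst plus LIVE/DEAD far red dye and imaged, cells above an LDR intensity threshold counted dead, Hoechst-negative corpses included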
YKL-5-124 [1] = compound: T1, C=CC(=O)Nc1ccc(C(=O)Nc2[nH]nc3c2CN(C(=O)N[C@H](CN(C)C)c2ccccc2)C3(C)C)cc1 [YKL-5-124]; test: as above
[2] = compound: COc1cccc(OCCCN)c1-c1cc(Nc2cnc(C#N)cn2)n[nH]1
Everolimus = compound: CO[C@H]1C[C@@H]2CC[C@@H](C)[C@@](O)(O2)C(=O)C(=O)N2CCCC[C@H]2C(=O)O[C@H]([C@H](C)C[C@@H]2CC[C@@H](OCCO)[C@H](OC)C2)CC(=O)[C@H](C)/C=C(\C)[C@@H](O)[C@@H](OC)C(=O)[C@H](C)C[C@H](C)/C=C/C=C/C=C/1C [Everolimus]
Cisplatin = compound: N.N.Cl[Pt]Cl [Cisplatin]
YKL-5-124 [3] = compound: T1, YKL-5-124
Etoposide = compound: COc1cc([C@@H]2c3cc4c(cc3[C@@H](O[C@@H]3O[C@@H]5CO[C@@H](C)O[C@H]5[C@H](O)[C@H]3O)[C@H]3COC(=O)[C@H]23)OCO4)cc(OC)c1O [Etoposide]
Topotecan = compound: CC[C@@]1(O)C(=O)OCc2c1cc1n(c2=O)Cc2cc3c(CN(C)C)c(O)ccc3nc2-1 [Topotecan]
Bleomycin = compound: CC1=C(N=C(N=C1N)[C@H](CC(=O)N)NC[C@@H](C(=O)N)N)C(=O)N[C@@H]([C@H](C2=CN=CN2)OC3C(C(C(C(O3)CO)O)O)OC4C(C(C(C(O4)CO)O)OC(=O)N)O)C(=O)N[C@H](C)[C@H]([C@H](C)C(=O)N[C@@H]([C@@H](C)O)C(=O)NCCC5=NC(=CS5)C6=NC(=CS6)C(=O)NCCC[S+](C)C)O [Bleomycin]; settings: main component drawn
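Wherever GR50, 72 h is given: breast cancer and non-malignant breast epithelial cell lines, Deep Dye Drop or Dye Drop imaging, nine half-log doses, GR normalized to time-zero plates and DMSO-only controls.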

| Cell Line | increase in dead-cell fraction (THZ531; 0.0001 µM) | increase in dead-cell fraction (THZ531; 0.0003162 µM) | increase in dead-cell fraction (THZ531; 0.001 µM) | increase in dead-cell fraction (THZ531; 0.003162 µM) | increase in dead-cell fraction (THZ531; 0.01 µM) | increase in dead-cell fraction (THZ531; 0.03162 µM) | increase in dead-cell fraction (THZ531; 0.1 µM) | increase in dead-cell fraction (THZ531; 0.3162 µM) | increase in dead-cell fraction (THZ531; 1 µM) | increase in dead-cell fraction (YKL-5-124 [1]; 0.001 µM) | increase in dead-cell fraction (YKL-5-124 [1]; 0.003162 µM) | increase in dead-cell fraction (YKL-5-124 [1]; 0.01 µM) | increase in dead-cell fraction (YKL-5-124 [1]; 0.03162 µM) | increase in dead-cell fraction (YKL-5-124 [1]; 0.1 µM) | increase in dead-cell fraction (YKL-5-124 [1]; 0.3162 µM) | increase in dead-cell fraction (YKL-5-124 [1]; 1 µM) | increase in dead-cell fraction (YKL-5-124 [1]; 3.162 µM) | increase in dead-cell fraction (YKL-5-124 [1]; 10 µM) | GR50, 72 h [2] | GR50, 72 h (Everolimus) | GR50, 72 h (Cisplatin) | GR50, 72 h (YKL-5-124 [3]) | GR50, 72 h (Etoposide) | GR50, 72 h (Topotecan) | GR50, 72 h (Bleomycin) |
| --- | --- | --- | --- | --- | --- | --- | --- | --- | --- | --- | --- | --- | --- | --- | --- | --- | --- | --- | --- | --- | --- | --- | --- | --- | --- |
| MDAMB330 | 0.0039 | -0.0007 | 0.0004 | 0.0018 | 0.0041 | 0.0164 | 0.664 | 0.519 | 0.413 | 0.0025 | 0.0078 | 0.0057 | 0.0038 | 0.0034 | 0.0041 | 0.0016 | 0.0166 | 0.131 | 0.000237 µM | < 0.001 µM | – | – | – | – | – |
| HCC1569 | 0.0019 | -0.0034 | -0.0007 | 0.0032 | 0.0103 | 0.0155 | 0.161 | 0.273 | 0.0822 | 0.0331 | 0.014 | -0.0042 | 0.0104 | -0.0403 | 0.0447 | 0.0404 | 0.0237 | 0.151 | 0.00228 µM | > 10 µM | – | – | – | – | – |
| T47D | -0.0029 | 0.0085 | -0.0033 | 0.0028 | -0.0045 | 0.0014 | 0.01 | 0.035 | 0.0357 | 0.0113 | 0.0129 | 0.0177 | 0.0322 | 0.0269 | 0.0156 | 0.0308 | 0.0206 | 0.0574 | – | < 0.001 µM | 1.57 µM | < 0.001 µM | 0.0417 µM | 0.00523 µM | 0.199 µM |
| PDX1206 | -0.0011 | 0.0053 | -0.0065 | -0.0032 | -0.0015 | -0.0072 | 0.347 | 0.257 | 0.344 | -0.009 | -0.0048 | 0.0238 | 0.0116 | 0.0307 | 0.0443 | 0.0358 | 0.0858 | 0.484 | 0.00357 µM | – | – | 0.0811 µM | – | – | – |
| SUM185PE | 0.0141 | 0.0051 | -0.0125 | -0.0076 | -0.0143 | -0.0254 | 0.0083 | 0.278 | 0.139 | 0.0052 | 0.0479 | 0.037 | 0.0467 | 0.0495 | 0.0156 | 0.067 | 0.121 | 0.148 | – | > 10 µM | – | 0.0819 µM | – | – | – |
| MDAMB231 | -0.0027 | -0.0002 | 0.002 | -0.0005 | -0.0004 | 0.0008 | 0.0103 | 0.0403 | 0.224 | 0.0171 | 0.0093 | 0.016 | 0.0176 | 0.0238 | 0.0218 | 0.0259 | 0.0247 | 0.155 | 0.000148 µM | > 10 µM | 2.41 µM | < 0.001 µM | 0.704 µM | 0.0297 µM | 6.32 µM |
| MDAMB175VII | 0.0053 | 0.0019 | 0.0075 | 0.0041 | 0.0043 | 0.0033 | 0.105 | 0.231 | 0.0668 | 0.0167 | 0.0032 | 0.0173 | 0.0139 | 0.0095 | 0.0149 | 0.0069 | 0.0133 | 0.285 | 0.0266 µM | < 0.001 µM | – | – | – | – | – |
